Measurements as given in ChEMBL document CHEMBL1201862, “PubChem BioAssay data set” (2004).
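Five concentrations, 48 hours, 96-well plates. At the GI50, growth is halved.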 Active and inactive are the calls of the source. Rule as the data show it: active = GI50 up to about 1.1 µM and inactive = higher.

How the values were obtained:
Test in all cases: inhibition of tumour cell growth, NCI panel, 48 h
DMS-114 = tested on: DMS-114
DMS-273 = tested on: DMS-273
HOP-18 = tested on: HOP-18
KM-20L2 = tested on: KM-20L2
LXFL 529 = tested on: LXFL 529
M19-MEL = tested on: M19-MEL
RXF 631 = tested on: RXF 631
SNB-78 = tested on: SNB-78
XF498 = tested on: XF498

Row | SMILES | GI50 (DMS-114) | GI50 (DMS-273) | GI50 (HOP-18) | GI50 (KM-20L2) | GI50 (LXFL 529) | GI50 (M19-MEL) | GI50 (RXF 631) | GI50 (SNB-78) | GI50 (XF498)
1 | O=C1Nc2ccc(Br)cc2/C1=N/Nc1ccc([N+](=O)[O-])cc1 | 18.5 µM (inactive) | 9.95 µM (inactive) | 17.7 µM (inactive) | 72.1 µM (inactive) | 22.8 µM (inactive) | 17.1 µM (inactive) | 17.3 µM (inactive) | 18.9 µM (inactive) | 23.7 µM (inactive)
2 | Cc1ccc(NC(=O)/C(C#N)=C/c2ccccc2)c(C)c1 | > 100 µM (inactive) | > 100 µM (inactive) | > 100 µM (inactive) | > 100 µM (inactive) | > 100 µM (inactive) | > 100 µM (inactive) |  | > 100 µM (inactive) | > 100 µM (inactive)
3 | COc1ccc2nc(C)cc(NCCCCCCCCCNc3cc(C)nc4ccc(OC)cc34)c2c1 | 1.15 µM (inactive) | 0.931 µM (active) |  | 0.946 µM (active) | 1.17 µM (inactive) | 14.6 µM (inactive) |  | 1.8 µM (inactive) | 2.21 µM (inactive)
4 | COc1ccc2oc(C(=O)O)c3c2c1CCC3CCC(=O)O (configuration not stated) | > 100 µM (inactive) | > 100 µM (inactive) |  |  | > 100 µM (inactive) | > 100 µM (inactive) | > 100 µM (inactive) | > 100 µM (inactive) | > 100 µM (inactive)
5 | CCCCNC(=O)C1C2CCC(O2)C1C(=O)O (configuration not stated) | 13.9 µM (inactive) | 32.4 µM (inactive) | 30.4 µM (inactive) | 6.24 µM (inactive) | 16 µM (inactive) | 19.3 µM (inactive) | 32.5 µM (inactive) | 32.9 µM (inactive) | 3.41 µM (inactive)
6 | CC[C@@]1(O)C[C@H](OC2CC(N(C)C)C(OC3CC(O)C(OC4CCC(=O)C(C)O4)C(C)O3)C(C)O2)c2c(cc3c(c2O)C(=O)c2c(O)ccc(O)c2C3=O)[C@H]1C(=O)OC (some centres not stated) |  | < 1e-05 µM (active) | 0.0128 µM (active) |  |  |  |  |  | 
7 | CCCCCCCC/C=C\CCCCCCCC(=O)NCCN(CCN)C(=O)CCCCCCC/C=C\CCCCCCCC | > 100 µM (inactive) | > 100 µM (inactive) | > 100 µM (inactive) | > 100 µM (inactive) | > 100 µM (inactive) | > 100 µM (inactive) |  |  | 
8 | COc1ccc(NC(=O)CC(=O)N/N=C/c2ccc(N(CCC#N)S(=O)(=O)c3ccccc3)cc2)cc1 | > 100 µM (inactive) |  | > 100 µM (inactive) | > 100 µM (inactive) | > 100 µM (inactive) | > 100 µM (inactive) | > 100 µM (inactive) | > 100 µM (inactive) | > 100 µM (inactive)
9 | CCCCCCCCCCC/C(=N/O)c1ccc(O)c2ncccc12 | 2 µM (inactive) | 1.51 µM (inactive) | 3.36 µM (inactive) | 3.85 µM (inactive) | 2.23 µM (inactive) | 2.11 µM (inactive) |  | 4.55 µM (inactive) | 
10 | CSc1nc2c(nc(N)n2C2OCC(O)C(O)C2O)c(=O)n1C (configuration not stated) | > 100 µM (inactive) |  | > 100 µM (inactive) | > 100 µM (inactive) | > 100 µM (inactive) | > 100 µM (inactive) | > 100 µM (inactive) | > 100 µM (inactive) | > 100 µM (inactive)
11 | N=C(N)NS(=O)(=O)c1ccc(Nc2c3ccccc3nc3c(C(=O)N4CCN(CCO)CC4)cccc23)cc1 | > 100 µM (inactive) | > 100 µM (inactive) | > 100 µM (inactive) | > 100 µM (inactive) | > 100 µM (inactive) | > 100 µM (inactive) |  | > 100 µM (inactive) | > 100 µM (inactive)
12 | O=C(Cc1ccccc1)Oc1ccc2c(-c3ccccc3)c(C(=O)Nc3ccc(Cl)cc3)c(=O)oc2c1 | > 100 µM (inactive) | > 100 µM (inactive) |  | > 100 µM (inactive) | > 100 µM (inactive) | > 100 µM (inactive) |  | > 100 µM (inactive) | > 100 µM (inactive)
13 | Cc1ccccc1Nc1nc2c(s1)C(=O)c1ccccc1C2=O | 2 µM (inactive) | 8.07 µM (inactive) | 12.4 µM (inactive) | 28.6 µM (inactive) | 4.61 µM (inactive) | 1.95 µM (inactive) |  | 12.8 µM (inactive) | 15.6 µM (inactive)
14 | Fc1cccc(C2SCc3nc4ccccc4n32)c1F (configuration not stated) | 23.8 µM (inactive) | 19.4 µM (inactive) | 56.1 µM (inactive) | > 100 µM (inactive) | 40.9 µM (inactive) | 43.9 µM (inactive) | 16.4 µM (inactive) | 32.6 µM (inactive) | 
